# Patent US7498029B2, “Photoimmunotherapies for cancer using combination therapies” (The General Hospital Corporation, priority 2001, dated 2009)
# “Also recorded” adds a separate entry of the source.
# What was measured:
# [1] = Fluorescence decay and relative fluorescence quantum yield; type: physicochemical; conditions: 50% DMSO/50% aqueous solution
# Procedure: In order to assess how conjugation to the antibody affected the ability of BPD to generate phototoxic species, relative fluorescence quantum yields and fluorescence decay signals for free BPD and for the various BPD PIC preparations were measured. Although fluorescence is a photophysical property of the singlet excited state of a photosensitizer, fluorescence quantum yields and decay times generally correlate with a photosensitizer's ability to generate phototoxic species. This correlation stems from the fact that a photosensitizer's phototoxic quantum yield usually correlates with its triplet quantum yield. […]
# Fluorescence properties were measured in 50% DMSO/50% aqueous solutions in order to overcome the tendency of BPD to aggregate in a purely aqueous solution. Relative fluorescence quantum yields for free BPD and for various PIC samples with varying BPD:antibody molar loading ratios were calculated from the ratios of the slopes of fluorescence emission intensity versus absorbance plots. The fluorescence emission intensity versus absorbance plot for a given sample was generated by measuring the emission intensities of a series of dilute solutions prepared from a concentrated stock solution of the sample. […] Fluorescence emission intensity was measured as the area under the fluorescence emission peak in the 650 to 800 nm range. […]
# Akt-1 = test: EGF-induced Akt-1 phosphorylation, Western blot in OVCAR-5 cells; type: cell-based, human
# Procedure: (§1) Twenty-four hours after photodynamic treatment as described above, OVCAR 5 cells in the groups to be stimulated with EGF were incubated for 15 min with 10 ng/ml EGF in prewarmed culture medium. The groups that were not stimulated with EGF only received prewarmed culture medium. After the 15 minute incubation, cells were kept on ice and cell lysates were collected in RIPA buffer (containing 0.1% SDS and 1% NP-40). After protein determination by a modified Lowry assay (Biorad, Hercules, Calif.), the proteins were run on SDS-PAGE, transferred to a polyvinylidene diflouride (PVDF) membrane (Immobilon-P, Millipore, Bedford, Mass.) and probed with the first antibody. To detect the phosphorylation of the EGFR, the anti-phosphotyrosine antibody 4G10 (New England Biolabs; Beverly, Mass.) was used. A secondary goat anti-mouse antibody, coupled to horseradish peroxidase (Biorad), was used in combination with a chemiluminescence kit (Amersham, Arlington Heights, Ill.) to visualize the specific bands. Western blots were reprobed with anti-actin (Santa Cruz Biotechnology, Santa Cruz, Calif.) to control for equal loading.
# (§2) Two important pathways which are regulated by EGFR are the PI3K-Akt/PKB-1 and the Ras-MAPK/ERK pathway. These signaling molecules are implicated in a variety oncogenic pathways. […]
# [2] = Solubility and stability in DMSO/aqueous solutions and on storage; type: physicochemical; conditions: DMSO/aqueous solution
# OVCAR-5 cells = test: PDT/PIT phototoxicity, MTT assay, OVCAR-5 cells; type: cell-based, human; conditions: with light, dose giving 50% survival after 24 hours, compared to control cells
# Procedure: (§3) This light was focused to a spot of 3.5 cm diameter, which corresponded to a power density of circa 40 mW/cm^2.
# (§4) To determine the survival fraction of cells after treatment, the 3-(4,5-dimethylthiazol-2-yl)-2,5-diphenyltetrazolium bromide (“MTT”) assay, which measured mitochondrial dehydrogenase activity, was used. Cells were incubated with 0.5 mg/ml MTT for 1 hour to measure its reduction by mitochondrial dehydrogenases.
# The MTT assay was performed 24 and 72 hours after treatment.
# [3] = Body weight loss of xenograft mice; type: in vivo; conditions: before tumor cell injection to day 21
# From the text: Animals were weighed before tumor cell injection, and before sacrifice at day 21.
# [4] = test system: EGFR-overexpressing A-431 cells; test: Phototoxicity and competition studies, MTT assay; type: cell-based, human; conditions: incubation periods much shorter than 6 hours
# Procedure: Preliminary phototoxicity studies were conducted using EGFR-overexpressing A-431 cells.
# Cells were plated in 2 ml of media in 35 mm tissue culture dishes at densities such that the cells reached approximately 60 to 80% confluence at the end of a three-day growth period. Following an initial period of at least 14 to 20 hours, which allowed for cells to attach and begin dividing, incubation with PICs or free BPD was initiated by replacing the original 2 ml of media with 2 to 4 ml of medium containing PIC or free BPD. Incubations were done at 37° C. and were begun with respect to the end of the three-day growth period. At the end of the three-day growth period, the medium containing PIC or free BPD was removed. Cells were washed once with 2 ml of DPBS, and 2 ml of fresh medium was added back to each dish. Cells were then immediately irradiated with the requisite light dose. Following irradiation, cells were incubated overnight at 37° C. and then assayed for viability by the calorimetric MTT assay (Mosmann, 1983). Except for the intended light dose, care was taken to protect the cells from light exposure at all times.
# The radiation source was a dye laser pumped by an argon ion laser (models CR-599 and Innova 100, respectively, Coherent Inc., Palo Alto, Calif.). […]
# CHO-ERBB2 cells = test: PDT/PIT phototoxicity, MTT assay, CHO-ERBB2 cells; type: cell-based; conditions: 140 nM, light dose of 2 J/cm^2, MTT 24 hours after illumination
# Procedure: as §3, §4
# MAPK/ERK = test: EGF-induced MAPK/ERK phosphorylation, Western blot in OVCAR-5 cells; type: cell-based, human
# Procedure: as §1, §2
# NIH:OVCAR-5 cells [5] = test: Tumoricidal response, intraperitoneal ovarian carcinoma xenograft, tumor burden at day 21; conditions: for Tumor Burden: necropsy day 21; for Survival Fraction: tumor burden relative to no treatment
# Procedure: NIH:OVCAR-5 cells were obtained from the Fox Chase Cancer Institute (Philadelphia, Pa.). Cells were grown in RPMI-1640 media (Mediatech Inc, Herndon, Va.) supplemented with 10% heat-inactivated fetal calf serum (GIBCO Life Technologies, Grand Island, N.Y.), and 100 U/ml penicillin and 100 μg/ml streptomycin. The cells were maintained in an incubator at 37° C. in an atmosphere of 5% CO2. At the time of NIH:OVCAR-5 cell injection, mice were given a numeric ear tag. Animals were anesthetized before the cell injection with 0.03 ml of a ketamine/xylazine mixture (ketamine, 120 mg/kg; xylazine, 15 mg/kg).
# Intraperitoneal (“i.p.”) PDT in the nude mice was performed as previously described (Molpus et al., 1996a). On day 10 and 20 after tumor cell injection, mice in BPD treatment and/or control groups 2, 4, 6, and 8 were injected with 0.25 mg/kg body weight of liposomal BPD-MA i.p. 90 minutes prior to light exposure. Light was not administered to animals in groups 1, 2, 5, and 6. BPD-MA solutions were prepared immediately prior to use in sterile PBS (total of 1 ml). All work involving BPD-MA was performed in subdued lighting.
# Animals which had to be illuminated were injected with 2 mL of a 0.1% intralipid solution i.p. prior to illumination to enhance light scattering. Animals were anesthetized with 0.03 ml of a ketamine/xylazine mixture (ketamine, 35 mg/ml; xylazine, 5 mg/ml). A solid state diode laser was used for illumination (BWF 690-1, B&W TEK, Newark, Del.), which delivers monochromatic light (690+/−5 nm) to overlap closely the absorption maximum of BPD-MA (690 nm), at a maximum power from the diode of 1 W. Alternatively, an argon-pumped dye laser (Coherent) was used to deliver 690 nm light i.p. via a cylindrically diffusing fiberoptic tip (8.0 mm×0.4 mm). The fiber, connected to the Argon-pumped dye laser or the solid state diode laser was introduced into the peritoneal cavity of a supine anesthetized animal via a centrally placed 22-gauge catheter traversing the abdominal cavity. A total of 20 J of light was delivered, at a fluence rate of 100-200 mw/cm^2. Of the total light energy, one fourth (5 J) was delivered to each i.p. quadrant over equivalent time periods. At the completion of the treatment, the mice were allowed to recover in an animal warmer until they awoke and resumed normal activity.
# Two endpoints were studied. The first endpoint studied was short-term tumor weight. The second endpoint studied was long-term survival. In the short-term tumor weight studies, animals were sacrificed on day 21 to assess acute treatment effects. Animals were also carefully examined for the presence of distinct extra-abdominal metastasis. Representative tissue samples were examined pathologically via hematoxylin and eosin staining.
# Tumoricidal response was assessed by comparing the extent of gross residual disease in treated animals to the extent of disease in untreated controls. Using the distribution pattern of the tumor in the OVCAR-5 human xenograft mouse model, which 20 was previously described (Molpus et al., 1996b), the sites where tumor was consistently present were dissected.
# NIH:OVCAR-5 cells [6] = test: Long term survival, intraperitoneal ovarian carcinoma xenograft; type: in vivo, mice
# From the text: A different group of animals was utilized to investigate survivability. Animals with rapid tumor progression leading to uncontrollable ascites or systemic illness were sacrificed. Animals were sacrificed based on the following parameters: loss of more than 15% body weight, severe pain not relieved by analgesics, self-mutilating behavior, inability or unwillingness to eat or drink, and weight gain of more than 20% body weight. At the time of necropsy, samples were weighed and collected as previously described.
# EGFR = biological target: T1, EGFR (Homo sapiens, UniProt P00533); test: EGF-induced EGFR phosphorylation, Western blot in OVCAR 5 cells; type: cell-based; conditions: 10 ng/ml EGF 15 min
# T1 construct: endogenous in cells; host or cells: OVCAR 5 cells
# Procedure: as §1
# [7] = no light, BPD […] i.p. days 10, 20, C225 0.5 mg i.p. days 11, 14, 17, 19
# [8] = with light (20 J, 690 nm i.p.), same doses
substance,measurement,setting,value
BPD Verteporfin,weighted-average fluorescence decay lifetime,[1]; emission 700 nm,6.02 ns
same,relative fluorescence quantum yield,[1]; excitation 428 nm,1.00
same,EGF-induced phosphorylation of Akt-1,"Akt-1; alone, no light",responded like control cells
same,EGF-induced phosphorylation of Akt-1,Akt-1; plus light,did not have an inhibitory effect; also recorded: not by treatment with BPD plus light
same,DMSO content above which free BPD goes from predominantly aggregated to predominantly disaggregated monomeric state,[2],> 40%
same,increase in MTT activity between the 24 and 72 hours time-point,OVCAR-5 cells,15%
same,Weight Loss In Grams,[3]; [7],2.01 Grams
same,Weight Loss In Grams,[3]; [8],2.14 Grams
same,phototoxic cell killing,[4],greater than 90%
same,viability,CHO-ERBB2 cells,less than 20%
same,EGF-induced phosphorylation of MAPK/ERK,"MAPK/ERK; alone, no light",responded like control cells
same,EGF-induced phosphorylation of MAPK/ERK,MAPK/ERK; plus light,did not have an inhibitory effect; also recorded: not by treatment with BPD plus light
same,DL,"NIH:OVCAR-5 cells [5]; Steel-Peckham interaction of the components in the formula, with light (hv)",0.493
same,Effect,"NIH:OVCAR-5 cells [5]; Steel-Peckham interaction, with light (hv)",synergistic
same,lnSF,NIH:OVCAR-5 cells [5]; no light,−0.4084
same,Tumor Burden,NIH:OVCAR-5 cells [5]; [7],469 mg
same,Survival Fraction,NIH:OVCAR-5 cells [5]; no light,0.69
same,lnSF,NIH:OVCAR-5 cells [5]; with light,−0.962
same,Tumor Burden,NIH:OVCAR-5 cells [5]; [8],261 mg
same,tumor burden as % of the no treatment control group,"NIH:OVCAR-5 cells [5]; with light, day 21",38%
same,tumor burden in the bowel mesentery,"NIH:OVCAR-5 cells [5]; with light, day 21",statistically significant reduction in tumor burden
same,Survival Fraction,NIH:OVCAR-5 cells [5]; with light,0.38
same,survival compared with untreated mice,"NIH:OVCAR-5 cells [6]; comparison of survival curves, PDT and combination with light, C225 alone without",significantly longer survival rates
same,mice still alive after 6 months (180 days),"NIH:OVCAR-5 cells [6]; with light, 9 mice per group",10%
same,50% alive,"NIH:OVCAR-5 cells [6]; with light, days on which 50% of the mice have died",36 (CI 32-90) days
same,EGF-induced EGFR phosphorylation,"EGFR; 140 nM alone, no light",reacted like control cells
same,EGF-induced EGFR phosphorylation,EGFR; 140 nM plus light,did not inhibit; also recorded: no inhibitory effect
